Holding throughout (type): cell-based
Experiment [1] concerns FGF-7. Description: Increased expression of FGF-7 in human dermal papilla cells by quantitative RT-PCR. On the procedure: The human dermal papilla cells (DPC) used in the experiment consisted of DPC originating in a person that were placed in frozen storage after being isolated and cultured from human scalp provided as a by-product of plastic surgery. […] Only MEM (serum-free) was used for the control cells, and these cells were treated in the same manner. mRNA was extracted from the cultured cells with MagNAPureLC (Roche Diagnostics) at 2, 4, 8 and 24 hours after addition of adenosine followed by cDNA synthesis using the SuperScriptII reverse transcriptase kit (Invitrogen). The expressed amounts of mRNA were compared by real-time PCR using the fluorescent pigment CyberGreen I, which binds to the minor grooves of double-stranded DNA, with the LightCycler-FastStart DNA Master SYBR Green I Kit (Roche Diagnostics) by using the synthesized cDNA as a template. […] This fluorescent intensity reflects the amount of PCR product at that point in time. The amount of expressed gene was hypothesized to be that which is amplified while satisfying Y=A×2^X for the PCR product Y of the initial amount of template A during the exponential amplification period of the PCR product relative to the number of PCR cycles X, and a relative value was calculated from the number of cycles needed to obtain a given amount of PCR product. The following indicates the FGF-7 amplification primers used in this study. An RT-PCR experiment was carried out in the same manner as Experiment 1 with the exception of using two concentrations of adenosine consisting of 10 μM and 100 μM and setting the duration of adenosine treatment to 3 hours. […] The results are shown in FIGS. 4, 5 and 6, respectively.

The test system of experiment [2] is FGF-7. Description: Increased expression of FGF-7 in human immortalized dermal papilla cells by quantitative RT-PCR. Conditions: human immortalized dermal papilla cells (SV40 large T antigen), adenosine, 2 hours, FIG. 8. Here is the method: mRNA was extracted from the cultured cells with MagNAPureLC (Roche Diagnostics) at 2, 4, 8 and 24 hours after addition of adenosine followed by cDNA synthesis using the SuperScriptII reverse transcriptase kit (Invitrogen). The expressed amounts of mRNA were compared by real-time PCR using the fluorescent pigment CyberGreen I, which binds to the minor grooves of double-stranded DNA, with the LightCycler-FastStart DNA Master SYBR Green I Kit (Roche Diagnostics) by using the synthesized cDNA as a template. […] The amount of expressed gene was hypothesized to be that which is amplified while satisfying Y=A×2^X for the PCR product Y of the initial amount of template A during the exponential amplification period of the PCR product relative to the number of PCR cycles X, and a relative value was calculated from the number of cycles needed to obtain a given amount of PCR product. […]

Experiment [3] relates to FGF-7. Description: Increased expression of FGF-7 in human outer root sheath cells by quantitative RT-PCR. Conditions: adenosine 10 or 100 μM, 3 hours, FIG. 9. On the procedure: The expressed amounts of mRNA were compared by real-time PCR using the fluorescent pigment CyberGreen I, which binds to the minor grooves of double-stranded DNA, with the LightCycler-FastStart DNA Master SYBR Green I Kit (Roche Diagnostics) by using the synthesized cDNA as a template. More specifically, a total volume of 20 μl of reaction liquid (MgCl2: 2 mM, forward and reverse primer: 0.25 μM each) was prepared according to the manual provided using the LightCycler-FastStart DNA Master SYBR Green I Kit (Roche Diagnostics), and a PCR reaction was carried out with the LightCycler (enzyme activation: 95° C./10 minutes; thermal denaturation: 95° C./15 seconds; annealing: 58° C./5 seconds; elongation reaction: 72° C./10 seconds; 40 cycles of thermal denaturation to elongation reaction) followed by monitoring fluorescent intensity at completion of the elongation reaction of each cycle. This fluorescent intensity reflects the amount of PCR product at that point in time. The amount of expressed gene was hypothesized to be that which is amplified while satisfying Y=A×2^X for the PCR product Y of the initial amount of template A during the exponential amplification period of the PCR product relative to the number of PCR cycles X, and a relative value was calculated from the number of cycles needed to obtain a given amount of PCR product. […]

[4] abbreviates: 100 μM, 2 hours, FIGS. 4, 5 and 6.
Setting [5] is: CCPA 100 μM, C1-IB-MECA 50 μM, NECA 10 μM, 3 hours, FIG. 3.

Results on 6 compounds are retold here after patent publication US20070299032A1, “Method and Composition for Thickening Hair” (Shiseido Company, Ltd., priority 2003, published 2007).

SMILES strings stand for the structures.

For `Cc1ccc(C2Oc3ccccc3C(=O)C2C)cc1` (stereo not drawn) [3,4′-dimethylflavanone], the “inhibition of increased FGF-7 expression by the adenosine receptor inhibitor 8-SPT” value in the experiment on FGF-7 [1] (100 μM, 2 hours) is given as “not observed”. For the same compound, the “expression of FGF-7 (relative amount)” value in the experiment on FGF-7 [1] (setting [4]) is on record as “increased expression of FGF-7”.
Taken in the same sequence, the figures for `CC1C(=O)c2ccccc2OC1c1ccccc1` (stereo not drawn) [3-methylflavanone] were “not observed” and “increased expression of FGF-7”.
Turning to `OC[C@H]1O[C@@H](n2cnc3c(NC4CCCC4)nc(Cl)nc32)[C@H](O)[C@@H]1O` [CCPA, 2-chloro-N^6-cyclopentyladenosine, reference compound], the “expression of FGF-7 (relative amount)” value in the experiment on FGF-7 [1] (setting [5]) was “significantly increased”.
Same read-out and setting: then `CCNC(=O)[C@H]1O[C@@H](n2cnc3c(N)ncnc32)[C@H](O)[C@@H]1O` [NECA, N-ethylcarboxyamidoadenosine, reference compound], with “significantly increased”.
As for `Nc1ncnc2c1ncn2[C@@H]1O[C@H](CO)[C@@H](O)[C@H]1O` [adenosine], the “expression of FGF-7 (relative amount)” value in the experiment on FGF-7 [1] (adenosine 10 μM and 100 μM, 3 hours, FIG. 2) is “increase dependent on the concentration of adenosine”; in the experiment with FGF-7 [2], “increased expression of FGF-7”; in the experiment with FGF-7 [3], “prominent increase in expression of FGF-7”. The “expression of FGF-7 (relative value)” value with FGF-7 [1] (adenosine 100 μM, mRNA at 2, 4, 8 and 24 hours, FIG. 1) was “increased considerably”.
For the compound `O=C1CC(c2ccccc2)Oc2ccccc21` (stereo not drawn) [flavanone, reference compound], the “inhibition of increased FGF-7 expression by the adenosine receptor inhibitor 8-SPT” value with FGF-7 [1] (100 μM, 2 hours) was “not observed”. In the experiment on FGF-7 [1] (setting [4]), the “expression of FGF-7 (relative amount)” value is “increased expression of FGF-7”.
